Publication PMC4351868 (Cancer chemotherapy and pharmacology, 2012)
Read-outs that look alike come from different tables or passages of the source.

Tests used:
[1] = Serum pharmacokinetics of AEE788 and its metabolite AQM674
recurrent glioblastoma [2] = assay: Efficacy: tumor response; format: in vivo, human; details: for Median PFS: dose expansion phase
[3] = format: in vivo, human; details: for concentration at 12 h: serum, Serum concentration; for concentration at 12 h / Serum concentration / Tumor concentration: approximately 12 hours after 8th AEE788 (250 mg) dose
[4] = human, in vivo
[5] = Safety assessment: adverse events; format: in vivo
recurrent glioblastoma [6] = assay: FLT-PET and DCE-/DSC-/DWI-MRI pharmacodynamic imaging; format: in vivo, human
recurrent glioblastoma [7] = details: glioblastoma patients; erlotinib in combination with temsirolimus; cited from earlier work
[8] = temsirolimus combined with sorafenib; 9 of 19 patients; cited from earlier work

SMILES: CCN1CCN(Cc2ccc(-c3cc4c(N[C@H](C)c5ccccc5)ncnc4[nH]3)cc2)CC1 [AEE788]
- Tmax ([1]; human, serum, oral): 5 h
- half-life ([1]; human, serum, oral): > 24 h
- AUC(0-t) ([1]; human, serum, oral, 50 mg/day): 82 ng·h/mL
- Cmax ([1]; human, serum, oral, 50 mg/day): 7.7 ng/mL
- Tmax ([1]; human, serum, oral, 50 mg/day): 3 h
- AUC(0-t) ([1]; human, serum, oral, 100 mg/day): 168 ng·h/mL
- Cmax ([1]; human, serum, oral, 100 mg/day): 12.7 ng/mL
- Tmax ([1]; human, serum, oral, 100 mg/day): 4.3 h
- AUC(0-t) ([1]; human, serum, oral, 200 mg/day): 189 ng·h/mL
- Cmax ([1]; human, serum, oral, 200 mg/day): 8.2 ng/mL
- Tmax ([1]; human, serum, oral, 200 mg/day): 9 h
- AUC(0-t) ([1]; human, serum, oral, 250 mg/day): 1440 ng·h/mL
- Cmax ([1]; human, serum, oral, 250 mg/day): 74.5 ng/mL
- Tmax ([1]; human, serum, oral, 250 mg/day): 5.9 h
- AUC(0-t) ([1]; human, serum, oral, 300 mg/day): 628 ng·h/mL
- Cmax ([1]; human, serum, oral, 300 mg/day): 55.2 ng/mL
- Tmax ([1]; human, serum, oral, 300 mg/day): 4.9 h
- AUC(0-t) ([1]; human, serum, oral, 400 mg/day): 1150 ng·h/mL
- Cmax ([1]; human, serum, oral, 400 mg/day): 77.1 ng/mL
- Tmax ([1]; human, serum, oral, 400 mg/day): 6.7 h
- AUC(0-t) ([1]; human, serum, oral, 450 mg/day): 3000 ng·h/mL
- Cmax ([1]; human, serum, oral, 450 mg/day): 148 ng/mL
- Tmax ([1]; human, serum, oral, 450 mg/day): 11 h
- AUC(0-t) ([1]; human, serum, oral, 550 mg/day): 4300 ng·h/mL
- Cmax ([1]; human, serum, oral, 550 mg/day): 234 ng/mL
- Tmax ([1]; human, serum, oral, 550 mg/day): 12.5 h
- AUC(0-t) ([1]; human, serum, oral, 600 mg/day): 730 ng·h/mL
- Cmax ([1]; human, serum, oral, 600 mg/day): 71.8 ng/mL
- Tmax ([1]; human, serum, oral, 600 mg/day): 3.7 h
- AUC(0-t) ([1]; human, serum, oral, 800 mg/day): 1460 ng·h/mL
- Cmax ([1]; human, serum, oral, 800 mg/day): 95.2 ng/mL
- Tmax ([1]; human, serum, oral, 800 mg/day): 3 h
- overall best response: SD for > 3 cycles, patients (recurrent glioblastoma [2]; 6 of 36 patients): 17%
- Treatment discontinuation due to progressive disease (recurrent glioblastoma [2]; Group A, of 26 patients): 18 (69.2) n (%)
- Treatment discontinuation due to progressive disease (recurrent glioblastoma [2]; Group B, of 14 patients): 11 (78.6) n (%)
- complete or partial response (recurrent glioblastoma [2]; all patients): No CR or PR
- Median PFS (recurrent glioblastoma [2]; Group A): 2.7 (90% CI: 1.9, 2.8) months
- Median PFS (recurrent glioblastoma [2]; Group B): 1.6 (90% CI: 0.2, 2.6) months
- disease progression causing treatment discontinuation, patients (recurrent glioblastoma [2]; dose-escalation EIACD group, all dose levels (11 patients)): 78.6%
- disease progression causing treatment discontinuation, patients (recurrent glioblastoma [2]; dose-escalation non-EIACD group, all dose levels (18 patients)): 69.2%
- disease progression causing treatment discontinuation, patients (recurrent glioblastoma [2]; dose-expansion Arm 1, all dose levels (5 patients)): 71.4%
- disease progression causing treatment discontinuation, patients (recurrent glioblastoma [2]; dose-expansion Arm 2, all dose levels (10 patients)): 58.8%
- Kp ([3]; human, glioblastoma tumor / plasma, oral, 250 mg): 14 to 59
- concentration at 12 h ([3]; human, oral, 250 mg, Patient 1): 57.3 ng/mL
- concentration at 12 h ([3]; human, oral, 250 mg, Patient 2): 41.9 ng/mL
- concentration at 12 h ([3]; human, oral, 250 mg, Patient 3): 141 ng/mL
- concentration at 12 h ([3]; human, oral, 250 mg, Patient 4): 110 ng/mL
- PK steady state reached [4]: ≤ 15 days
- accumulation after daily (q 24 h) administration versus a single dose [4]: 2-8 times
- effect of EIACD on overall exposure / concentrations [4]: reduced
- exposure of Group B patients at 600 mg relative to Group A patients at 550 mg [4]: half
- fold range in exposure over an 11-fold range in doses (50–550 mg) [4]: 52 fold
- mean coefficient of variation in AUC0–24 [4]: 67%
- range of coefficient of variation in AUC0–24 [4]: 47-102%
- exposure on day 15 relative to day 1 ([4]; 15 day): approximately 4.5 fold
- deaths within 28 days of last dose of AEE788 ([5]; Group A): 4 deaths
- Treatment discontinuation due to death ([5]; Group A, of 26 patients): 2 (7.7) n (%)
- Treatment discontinuation due to death ([5]; Group B, of 14 patients): 0 (0) n (%)
- deaths during AEE788 therapy ([5]; all disease progression): Three
- hepatotoxicity (at least grade 2 AST or ALT elevations), patients ([5]; human, in vivo): 27%
- patients who discontinued because of SAEs ([5]; human, in vivo): 17%
- patients who discontinued treatment because of AEs ([5]; human, in vivo): 28%
- patients with grade 3/4 AST or ALT elevations ([5]; human, in vivo): 22%
- patients reporting at least one AE ([5]; in vivo): All patients
- relationship between higher AEE788 dose levels and AST or ALT abnormalities ([5]; in vivo): No relationship
- change in FLT-PET parameters (recurrent glioblastoma [6]; FLT-PET in 6 patients (250, 400, 600 mg)): one patient experienced a significant decrease in PET parameters
- pharmacodynamic effects based on FLT-PET and/or MRI analyses (recurrent glioblastoma [6]; any dose level): no significant pharmacodynamic effects

SMILES: C[C@@H](Nc1ncnc2[nH]c(-c3ccc(CN4CCNCC4)cc3)cc12)c1ccccc1 [AQM674]
- fold range in exposure over an 11-fold range in doses (50–550 mg) ([1]; Group A): 20 fold
- effect of EIACD on overall exposure / concentrations ([1]; Group B (EIACD) vs Group A): reduced
- accumulation after daily (q 24 h) administration versus a single dose ([1]; human, in vivo): 2-8 times
- PK steady state reached ([1]; once-daily dosing): ≤ 15 days
- Serum concentration ([3]; Patient 1): 20.6 ng/mL
- Tumor concentration ([3]; Patient 1): 196.7 ng/mL
- Serum concentration ([3]; Patient 2): 22.8 ng/mL
- Tumor concentration ([3]; Patient 2): 411.2 ng/mL
- Serum concentration ([3]; Patient 3): 31.3 ng/mL
- Tumor concentration ([3]; Patient 3): 299.5 ng/mL
- Serum concentration ([3]; Patient 4): 22.8 ng/mL
- Tumor concentration ([3]; Patient 4): 93.9 ng/mL
- exposure on day 15 relative to day 1 [4]: ~3 fold
- time of maximum serum concentration after administration, on average [4]: 4.6 h

SMILES: C#Cc1cccc(Nc2ncnc3cc(OCCOC)c(OCCOC)cc23)c1 [erlotinib]
- 6-month PFS (recurrent glioblastoma [7]): 12.5%
- PR (recurrent glioblastoma [7]): none

SMILES: CO[C@H]1C[C@@H]2CC[C@@H](C)[C@@](O)(O2)C(=O)C(=O)N2CCCC[C@H]2C(=O)O[C@H]([C@H](C)C[C@@H]2CC[C@@H](OC(=O)C(C)(CO)CO)[C@H](OC)C2)CC(=O)[C@H](C)/C=C(\C)[C@@H](O)[C@@H](OC)C(=O)[C@H](C)C[C@H](C)/C=C/C=C/C=C/1C [temsirolimus]
- grade 3 thrombocytopenia, patients [8]: 47%
